Residues, ends and D or L forms follow the SMILES beside them. *: point of attachment. Cbz = O=C(OCc1ccccc1)*; CH2F = FC*
Assays:
Type in all cases: cell-based
[1] = test system: granulocytes; assay: Respiratory burst in isolated neutrophils measured by chemiluminescence (opsonized zymosan, lucigenin); details: Figure 7
Protocol: Whole blood anticoagulated with Acid Citrate Dextrose (ACD) with a ratio of 1:5 ACD to blood was collected (150 ml). Neutrophils were isolated as described above.
Opsonized zymosan was prepared by suspending 125 mg zymosan particles in 25 ml pooled human serum (5 mg/ml) and incubating them for 20 minutes at 37°C. Centrifuge the suspension and resuspend the particles in 7 ml of PBS (18 mg/ml) and stored on ice until use (vortex prior to pipetting).
50 ml of a 250 µM solution of Lucigenin (MW 510.5) was prepared by dissolving 6.4 mg of the solid in 50 ml of PBS-G (+ Ca, Mg). 10 µl of PBS-G (+ Ca, Mg) to the wells in a white 96 well plate.
50 µl of the 250 µM Lucigenin solution was added to the wells in a white 96 well plate.
Cell preparations were obatined from cell culture (concentration at time zero= 5.0 x 10^6 cells/ml) with PBS-G (+ Ca, Mg).
20 µl of the neutrophil suspension was suspended to the appropriate wells and the plate was incubated the plate at 37° C for three minutes. 10 µl of the opsonized zymosan was added to the wells.
The plate was read on the luminometer (Labsystems Luminoskan, Needham Heights, MA) for 14 min. at 37° C in the kinetic mode and record results using the software DeltaSoft.
The ability to undergo the respiratory burst is another measure of granulocyte viability. The respiratory burst is a physiological response of granulocytes to foreign stimuli such as bacteria. In this example, the method for inducing the respiratory burst utilized opsonized bacterial zymosan. The respiratory burst was measured via chemiluminescence.

[2] = test system: granulocytes; assay: Granulocyte survival in culture: analysis of hypodiploid nuclei by flow cytometry (propidium iodide); details: Figure 6; for IC50: isolated granulocytes cultured at 37°C, nuclear hypodiploidy, propidium iodide stain via flow cytometry, read-out: IC50 (effects on granulocyte survival)
Protocol: Whole blood anticoagulated with Acid Citrate Dextrose (ACD) with a ratio of 1:5 ACD to blood was collected (~100 ml).
Using polypropylene plastic ware, neutrophils are isolated as follows: 30 ml of the whole blood is added to 50 ml polypropylene centrifuge tubes containing 15 ml of 6% Dextran (in Saline). The blood is allowed to sediment for approximately 1 hour at room temperature.
The turbid straw colored layer harvested from the top of the cylinders into 50 ml conical polypropylene tubes. The blood cells were pelleted by centrifugation at 240 xg (Sorvall centrifuge at 1200 rpm) for 12 min. at 4°C with the brake on low.
The supernatant was aspirated and the pooled pellet resuspended in 40-50 ml cold PBS (w/o Ca, Mg), and centrifuged at 240 xg (Sorvall centrifuge at 1200 rpm) for 6 min. at 4°C with the brake on high.
The supernatant was aspirated and the pellet resuspended in 12 ml of cold cell culture grade water. The suspension was titriated gently with a pipet for 30 seconds then add 4 ml of cold 0.6 M KCl. (Brought up to 50 ml with cold PBS (w/o Ca, Mg)) and then centrifuged at 300 xg (Sorvall centrifuge at 1400 rpm) for 6 min. at 4°C with the brake on high.
The above was repeated one time.
The supernatant was aspirated and the cells resuspended in 2.5 ml cold PBS (w/o Ca, Mg). The cell suspension was layered over 3 ml Ficoll-Hypaque in a 15 ml polypropylene conical tube and centrifuged at 400 xg (Sorvall centrifuge at 1900 rpm) for 30 min. at 4°C with the brake on low.
The suspension aspirated was down to the neutrophil pellet. […]
The supernatant was aspirated and the neutrophil pellet resuspended in 4.0 ml cold PBS (w/o Ca, Mg) on ice. 10 µl of the neutrophil cell suspension was diluted with 990 µl of Trypan blue (1:100) and cells counted using a hemacytometer. The cell number and viability were determined. […]
• (50 µg/ml propidium iodide (Sigma catalog#P4170); 0.1% Triton X-100; and 0.1% sodium citrate). • Neutrophils were pelleted at 4°C and the supernate aspirated. • Neutrophils were resuspended in hypotonic fluorochrome solution at a density of 5x10^6 cells/ml. Propidium iodide fluorescence of individual nuclei was evaluated in FL2 and measured on a logarithmic scale while gating on physical parameters in forward and side scatter to exlude cell debris.
At least 10,000 events per sample were collected and the results were evaluated relative to a non-apoptotic neutrophil population. […]
The present invention provides methods to enhance the ex vivo survival of neutrophils/granulocytes. […] The presence of hypodiploid DNA is a measure of apoptosis, and is assessed using a propidium iodide stain via flow cytometry. […]

[3] = test system: granulocytes in whole blood; assay: Whole blood assay: survival of granulocytes by hypodiploid analysis via flow cytometry
Protocol: The following reagents were used: • anti-CD32-FITC monoclonal antibody obtained from Pharmingen. • Lysing Solution (10X Stock: 89.9 g NH4Cl; • 10.0 g KHCO; • 0.37 g tetrasodium EDTA; • dissolve in 1 liter dH2O. Adjust to pH 7.3. Store at 4°C in a tightly closed bottle. • Dilute 1:10 with dH2O prior to use.) • (DPBS without calcium or magnesium obtained from Irivine Scientific. • 2% fetal bovine serum in DPBS stored at 4°C. • 50 µg/ml propidium iodide in DPBS sterile filtered and stored at 4°C.)
The following protocol was followed: • 200 µl blood sample/2.8 ml 1X lysis solution in a 15 ml polypropylene conical tube. • Cap and invert to mix. Leave at room temperature for 3-5 minutes. • Centrifuge in a table-top Sorvall at 1200 rpm for 5 minutes at 4°C. • Aspirate supernate. Resuspend pellet in 200 µl/sample 2% FBS/DPBS. Add 20 µl/sample anti-CD32-FITC. Incubate 30 minutes on ice in the dark. • Add 5 ml/sample DPBS. Centrifuge at 1000 rpm for 5 minutes at 4°C. • Aspirate supemate. Resuspend pellet in 1 ml/sample 2% FBS/DPBS. • Add 3 ml/sample ice-cold 95% EtOH dropwise while vortexing gently. • Incubate samples on ice in the dark for 30 minutes. • Centrifuge at 1000 rpm for 5 minutes at 4°C. • Resuspend each sample in 50 µl 5 mg/ml RN'ase. Transfer sample to 900 µl/sample • 50 µg/ml Propidium Iodide in 12x75 mm Falcon polystyrene tubes. • Incubate on ice for 30 minutes. • Analyze samples by flow cytometry (argon laser) for forward and side scatter and fluorescence.
Survival of granulocytes in whole blood was measured by hypodiploid analysis in a similar fashion to isolated granulocytes via flow cytometry. ICE/ced-3 inhibitors of the present invention maintained survival of granulocytes in whole blood for 96 hours at room temperature as indicated in the table below: Percentage of diploid granulocytes in whole blood

[4] = after granulocyte culture for 72 hours
[5] = granulocyte culture for 48 hours

Which results are given for `COC(=O)C[C@H](NC(=O)[C@H](C)NC(=O)[C@@H](NC(=O)OCc1ccccc1)C(C)C)C(=O)CF` [zVADfmk, reference compound] (Cbz-Val-Ala-Asp(OMe)-CH2F)?
respiratory burst ([1]; no time stated): did not maintain the respiratory burst; effect on improving granulocyte survival ([2]; isolated granulocytes in culture, at 48 hours): weak effect

For `O=C(O)CC(NC(=O)[C@@H]1Cc2cccc3c2N1C(=O)[C@@H](NC(=O)OCc1ccccc1)CC3)C(=O)CF` (relative stereo) [Example 106], which IC50 [2] is on record?
The IC50 was under 5 µM.

What does the source list for `Cc1c(C(=O)N[C@H](C(=O)NC(CC(=O)O)C(=O)COC(=O)c2c(Cl)cccc2Cl)C(C)C)n(C)c2ccccc12` (stereo partly shown) [Example 70, N-[N-(1,3-Dimethyl-indole-2-carbonyl)-Valinyl]-3-amino-5-(2,6-dichlorobenzoyl)oxy-4-oxo-pentanoic acid]?
respiratory burst [1, 4]: partially maintained; respiratory burst [1, 5]: substantially maintained; IC50 [2]: < 5 µM; Percentage of diploid granulocytes in whole blood ([3]; 96 hours at room temperature): 89%; Percentage of diploid granulocytes in whole blood ([3]; time zero, 0 min): 96%

`Cc1c(C(=O)N[C@H](C(=O)NC(CC(=O)O)C(=O)CF)C(C)C)n(C)c2ccccc12` (stereo partly shown) [Example 43, N-[(1,3-Dimethylindole-2-Carbonyl)Valinyl]-3-Amino-4-Oxo-5-Fluoropentanoic Acid] was tested. Which respiratory burst [1, 4] did it give?
The respiratory burst was “partially maintained”.

What about the respiratory burst [1, 5] of the same molecule?
Its respiratory burst is “substantially maintained”.

What about the IC50 [2] of the same molecule?
The IC50 was under 5 µM.

What about the “Percentage of diploid granulocytes in whole blood” value ([3]; 96 hours at room temperature) of the same molecule?
The value was 91%.

And the “Percentage of diploid granulocytes in whole blood” value ([3]; time zero, 0 min)?
The value was 96%.

Reference: patent EP1647279A2, “Inhibition of apoptosis using interleukin-1beta-converting enzyme (ICE)/CED-3 family inhibitors” (priority 1996, dated 1998)
